Test system: HDAC (HeLa nuclear extract, rich in HDAC activity)
Assay: HDAC AK-501 colorimetric inhibition kit (Color de Lys substrate, HeLa nuclear extract)
Type: biochemical, human
Conditions: Color de Lys substrate 0.2 mM final, 20 minutes at 37° C., reading at 405 nm, 5 concentrations (0.1-1.0 μM)
Method: The process of the assay was carried out in two steps. In the first step, the Color de Lys® substrate, containing an acetylated lysine group, was incubated with a sample of HeLa (human cervical cancer cell line) nuclear extract, rich in HDAC activity. […] There is a linear correlation between the absorption and the deacetylation of lysine within instrumental limits. The operating procedure was the following: • 1. […] The Hela extract was added, except to the enzyme-free control. • 3. The plate and the Color de Lys® substrate were thermostatted at 37° C. • 4. The reactions were started adding the 0.4 mM substrate (final concentration of the substrate 0.2 mM) in each well and it was stirred. • 5. A reaction time of 20 minutes at 37° C. was allowed. • 6. The Color de Lys® developer, prepared approximately 30 minutes before its use, was added (the developer was used diluted 20 times with an amount of TSA resulting in a final concentration of 1 μM in the assay). • It was allowed to react for 15 minutes at 37° C. • 7.

| IC50 [nM] | Compound |
| --- | --- |
| 350 | O=C(CCCCCN1C(=O)c2ccc([N+](=O)[O-])cc2C1=O)NO [MTC-127, 6-(5-nitro-1,3-dioxo-isoindol-2-yl)-N-hydroxyhexanamide] |
| 180 | Cc1ccc2c(c1)C(=O)N(CCCCCC(=O)NO)C2=O [MTC-141, 6-(5-methyl-1,3-dioxoisoindol-2-yl)-N-hydroxyhexanamide] |

Source: patent US20110003878A1, “NOVEL DERIVATIVES OF PHTHALIMIDE AS HISTONE DEACETYLASE INHIBITORS” (UNIVERSIDAD DE GRANADA, priority 2006, published 2011)
